The record followed here is paper PMC4838890, “Dynamic and flexible H3K9me3 bridging via HP1β dimerization establishes a plastic state of condensed chromatin” (Nature Communications, 2016).

Like-named read-outs stand apart in the source and are kept apart here.

For the test, the target named is H3K9me3 mononucleosome. The test can be described thus: SPR, immobilized (symmetric) H3K9me3 mononucleosome. In kind it is binding, Xenopus laevis. The protocol:
SPR measurements were performed on a Biacore 2000 instrument (GE Healthcare, Buckinghamshire, UK) at 298 K in 10 mM triethanolamine (pH 7.5), 150 mM NaCl, 0.1 mM EDTA, 1 mM DTT, 0.005% (v/v) Tween-20. Biotinylated ligands were immobilized on streptavidin-coated sensor chips SA (GE Healthcare, Buckinghamshire, UK). Before immobilization, sensor chips were conditioned as described by the manufacturer. To obtain low surface densities (5–24 RU), 5 nM biotinylated H3 peptide was injected at a low rate of 10 μl min^−1 using varying contact times. High surface densities (>700 RU) were prepared by injecting […] peptide (10 μl min^−1) until the SA surface was saturated. Peptide-containing chips were regenerated by applying three short pulses of 0.05% (w/v) SDS followed by an injection of 1.5 M NaCl for baseline stabilization. For binding assays, hHP1β proteins were injected at […] (serial twofold dilutions) for 2 min (30 μl/min). Dissociation was recorded for up to 5 min. A streptavidin surface without ligands served as reference. In addition, blank runs were performed for double referencing. Data evaluation was performed by steady-state analysis assuming a Langmuir 1:1 binding model using BIAevaluation 4.1 and Prism 5.04 (GraphPad, CA, USA) software. Binding to the unmodified peptides was analysed with maximum binding (RUmax) set to the corresponding values obtained with the modified peptides.
Figure S8 Hiragami-Hamada et al. […]
Supplementary Figure 8: hHP1β binds nucleosomes as dimer. […]
RU. Injection series are from 0.024 to 50 µM protein concentration. […]
(f) SPR response traces of injection of hHP1β WT into Biacore cells containing biotinylated, symmetrically modified H3K9me3-mononucleosomes (i.e. both H3-tails carry H3K9me3) immobilized […]
(also on this page, place not known: dimer . hHP1 β H3K9me3 - se nsory ( b) site -specific ( b) hHP1 β ( d) site -specific hHP1 β modifi ed H3K9me3 -mononucleosomes H3 -tails -30 -50 -8 -4 200 -10 110 -50 -10 -30 [μM] [μM] -10 190 150 -10 110 200 -10 110 μl/min μl/min μl/min -50 150 response [RU] response [RU] response [RU] response [RU] response [RU] [μM] 10 50 response [RU]40 0 0 [μM] 10 30 50 response [RU] 40 0 0 40 [μM] 10 30 50 response [RU] 140 40 0 120 0 40 response [RU] response [RU] response [RU] Kd Kd μM Kd μM 0.8 0.6 0.4 0.2 0 1 1.0 0.8 0.6 0.4 0.2 0.0 mass fraction) […]
on a sensory chip via covalently coated streptavidin. Immobilized mononucleosome was at 950 RU.
Injection series are from 0.024 to 50 µM protein concentration.
(g) Blot of signal over concentration of the titration in (f) to deduce an apparent Kd value. For reference, fitting of the data to a one and two site- specific binding model is shown.
(h) Same analysis as in (f) but with hHP1β I161A. […]
For orientation: Surface plasmon resonance follows binding to a sensor surface in real time, without labels.

Setting [1] is: SPR titration 0.024 to 50 µM, symmetrically modified mononucleosome at 950 RU, one site-specific binding, read-out: apparent Kd (Supplementary Fig. 8g,i).
Where [2] appears, read: SPR, 150 mM NaCl, pH 7.5, 298 K, steady-state, WT value based on fitting to a one site-specific binding model, read-out: Kd (apparent dissociation constant).

As to “hHP1β WT: recombinant human heterochromatin protein 1β (GenBank NM_001127228), 185 aa”, the Kd worked out at 920 nM under setting [1] and 1000 ± 200 nM under setting [2].

Regarding “hHP1β I161A: CSD point mutant of hHP1β incapable of dimerization”, the Kd runs as follows: under setting [1], 4300 nM; under setting [2], 5200 ± 600 nM.
